From ChEMBL document CHEMBL1149487, “A structure-guided approach to an orthogonal estrogen-receptor-based gene switch activated by ligands suitable for in vivo studies” (J Med Chem, 2006)
pEC50, pIC50: −log10 of the molar value. The source made the active and inactive calls. The calls are words filed in the database; no cut-off is given here.

How the values were obtained:
Estrogen receptor [1] = target: Estrogen receptor (Homo sapiens, UniProt P03372, G521R/L384M/M421G)
Estrogen receptor [2] = target: T1, Estrogen receptor (Homo sapiens, UniProt P03372)
T1 sequence (P03372 whole entry): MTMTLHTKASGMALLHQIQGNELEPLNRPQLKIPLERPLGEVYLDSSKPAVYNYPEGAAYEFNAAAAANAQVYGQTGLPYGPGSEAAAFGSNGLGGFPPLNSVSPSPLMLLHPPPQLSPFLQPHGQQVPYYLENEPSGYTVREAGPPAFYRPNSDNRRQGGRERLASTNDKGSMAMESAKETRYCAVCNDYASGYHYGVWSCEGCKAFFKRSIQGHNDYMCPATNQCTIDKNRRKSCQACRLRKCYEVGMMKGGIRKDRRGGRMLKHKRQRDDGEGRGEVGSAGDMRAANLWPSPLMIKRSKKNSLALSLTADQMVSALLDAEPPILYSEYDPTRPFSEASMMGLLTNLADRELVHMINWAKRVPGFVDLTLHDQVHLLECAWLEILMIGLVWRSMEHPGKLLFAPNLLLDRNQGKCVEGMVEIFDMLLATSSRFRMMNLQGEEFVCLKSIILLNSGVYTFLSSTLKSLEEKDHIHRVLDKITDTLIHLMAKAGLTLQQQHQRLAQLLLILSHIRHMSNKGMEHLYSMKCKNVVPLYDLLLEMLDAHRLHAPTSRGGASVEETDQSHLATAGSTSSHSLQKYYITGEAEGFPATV
Description: Binding affinity to human ER alpha

Estrogen receptor beta [3] = target: T2, Estrogen receptor beta (Homo sapiens, UniProt Q92731)
Estrogen receptor [4] = target: T1, Estrogen receptor; assay: Binding affinity to wild type ERalpha
[5] = Cmax in BALB/c mouse at 4 mg/kg, ip; assay type: ADME, organism-based; set-up: dose 4 mg/kg, route intraperitoneal; conditions: in vivo
[6] = Terminal half life in rat at 3 mg/kg, iv; assay type: ADME, organism-based; set-up: dose 3 mg/kg, route intravenous; conditions: in vivo, read-out: beta t1/2 (converted)
[7] = Clearance in rat at 3 mg/kg, iv; assay type: ADME, organism-based; set-up: dose 3 mg/kg, route intravenous; conditions: in vivo
Estrogen receptor beta [8] = target: T2, Estrogen receptor beta; assay: Binding affinity to human ER beta upto 10 uM
[9] = target: T3, Estrogen receptor (Homo sapiens) (UniProt P03372); assay type: functional, cell-based; conditions: HeLa
T3 sequence (whole entry): T1 sequence (P03372 whole entry)

T2 sequence (Q92731 whole entry): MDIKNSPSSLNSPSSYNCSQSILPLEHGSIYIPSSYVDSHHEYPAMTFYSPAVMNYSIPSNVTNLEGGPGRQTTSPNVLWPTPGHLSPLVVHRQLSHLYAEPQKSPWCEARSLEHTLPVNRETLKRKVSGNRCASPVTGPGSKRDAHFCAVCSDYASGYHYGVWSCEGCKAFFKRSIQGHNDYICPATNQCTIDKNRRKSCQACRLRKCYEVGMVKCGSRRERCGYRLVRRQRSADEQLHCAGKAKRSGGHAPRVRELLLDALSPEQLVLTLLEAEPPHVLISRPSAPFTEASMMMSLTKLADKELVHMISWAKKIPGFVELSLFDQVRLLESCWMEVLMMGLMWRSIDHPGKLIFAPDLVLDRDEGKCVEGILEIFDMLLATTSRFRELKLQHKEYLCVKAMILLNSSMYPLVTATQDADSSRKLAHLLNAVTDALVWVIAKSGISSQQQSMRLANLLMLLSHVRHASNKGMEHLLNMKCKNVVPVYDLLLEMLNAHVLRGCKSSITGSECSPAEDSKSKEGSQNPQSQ
Chain of Estrogen receptor (Homo sapiens, UniProt P03372, G521R/L384M/M421G) (P03372 whole entry L384M/M421G/G521R): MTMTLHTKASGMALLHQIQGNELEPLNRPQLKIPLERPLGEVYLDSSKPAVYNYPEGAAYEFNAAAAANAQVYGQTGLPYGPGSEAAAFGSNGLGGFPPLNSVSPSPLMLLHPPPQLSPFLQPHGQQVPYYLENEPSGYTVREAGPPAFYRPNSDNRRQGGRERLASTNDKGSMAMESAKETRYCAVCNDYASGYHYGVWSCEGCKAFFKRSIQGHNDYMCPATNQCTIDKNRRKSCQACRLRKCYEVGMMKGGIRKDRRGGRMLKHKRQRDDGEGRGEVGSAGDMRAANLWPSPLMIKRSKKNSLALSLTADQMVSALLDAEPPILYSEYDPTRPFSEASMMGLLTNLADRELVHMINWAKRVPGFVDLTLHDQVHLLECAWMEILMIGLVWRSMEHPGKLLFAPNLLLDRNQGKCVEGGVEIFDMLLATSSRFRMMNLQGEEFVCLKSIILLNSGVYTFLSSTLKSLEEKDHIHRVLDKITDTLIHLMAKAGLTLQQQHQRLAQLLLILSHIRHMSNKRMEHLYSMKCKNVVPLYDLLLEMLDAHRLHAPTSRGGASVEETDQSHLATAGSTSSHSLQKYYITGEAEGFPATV

Row | pIC50 (Estrogen receptor [2]) | pIC50 (Estrogen receptor beta [3]) | Structure (SMILES) | also measured
1 | < 5.00 | 5.80 | CC1=C2c3ccc4[nH]ncc4c3CC2(Cc2cccc(F)c2)CCC1=O (configuration not stated) | –
2 | 5.47 | 6.25 | CC1=C2c3ccc4[nH]ncc4c3CC2(Cc2ccccc2F)CCC1=O (configuration not stated) | –
3 | < 5.00 | 5.24 | CC1=C2c3ccc4nn[nH]c4c3CC2(Cc2ccccc2)CCC1=O (configuration not stated) | –
4 | – | < 6.00 | CC1=C2c3ccc4[nH]ncc4c3CC2(Cc2ccc(F)cc2)CCC1=O (configuration not stated) | –
5 | – | < 5.00 | CC1=C2c3ccc4nn[nH]c4c3CC2(Cc2ccc(F)cc2)CCC1=O (configuration not stated) | –
6 | < 5.00 | 5.92 | CC1=C2c3ccc4[nH]ncc4c3CC2(Cc2ccccc2)CCC1=O (configuration not stated) | Activity [9]: inactive

Second part, the molecule before the results:

Row | Structure (SMILES) | pIC50 (Estrogen receptor [2]) | pIC50 (Estrogen receptor beta [3]) | also measured
7 | O=C1CCC2(Cc3ccccc3)Cc3c(ccc4[nH]ncc34)C2=C1c1ccc(OCCN2CCCCC2)cc1 (configuration not stated) | 6.21 | 6.89 | pEC50 (Estrogen receptor [1]): 6.52
8 | CN(C)CCOc1ccc(C2=C3c4ccc(O)cc4CC3(Cc3ccccc3)CCC2=O)cc1 (configuration not stated) | 5.92 | 6.25 | –
9 | CC1=C2c3ccc(O)cc3CC2(Cc2ccc(Cl)cc2)CCC1=O (configuration not stated) | – | – | pIC50 (Estrogen receptor [4]): 5.17
10 | O=C1C=C2c3ccc4[nH]ncc4c3CC2(Cc2ccccc2)CC1 (configuration not stated) | < 5.00 | < 5.00 | –
11 | O=C1CCC2(Cc3ccc(Cl)cc3)Cc3cc(O)ccc3C2=C1c1ccc(OCCN2CCCCC2)cc1 (configuration not stated) | 5.96 | 5.66 | Cmax [5]: 500 nM; pEC50 (Estrogen receptor [1]): 7.39
12 | O=C1CCC2(Cc3ccccc3)Cc3cc(O)ccc3C2=C1c1ccc(OCCN2CCOCC2)cc1 (configuration not stated) | 6.15 | 6.64 | –
13 | O=C1CCC2(Cc3ccccc3)Cc3cc(O)ccc3C2=C1c1ccc(O)cc1 (configuration not stated) | 6.66 | 7.00 | pEC50 (Estrogen receptor [1]): 7.96; half-life [6]: 1.5 h; clearance [7]: 39 mL/min/kg
14 | O=C1CCC2(Cc3ccccc3)Cc3cc(O)ccc3C2=C1c1ccc(OCCN2CCCCC2)cc1 (configuration not stated) | 6.42 | 6.74 | pEC50 (Estrogen receptor [1]): 7.85; half-life [6]: 2 h; clearance [7]: 22 mL/min/kg
15 | CC1=C2c3ccc4[nH]nnc4c3CC2(Cc2ccc(F)cc2)CCC1=O (configuration not stated) | – | – | Activity (Estrogen receptor beta [8]): inactive
16 | CC1=C2c3ccc(O)cc3CC2(Cc2ccccc2)CCC1=O (configuration not stated) | 5.82 | – | –
